Series [1] in a line: Renal clearance in an intact rat (fluorescence from within the ear). Type of series: in vivo, Sprague-Dawley rat. The settings on record: bolus injection into lateral tail vein, 2 ml of 0.4 mg/ml in PBS, 470 nm laser at ear. As for the experimental part:
(§1) Incident laser light having a wavelength of about 470 nm was delivered via a fiber optic bundle to the ear of an anesthetized intact Sprague-Dawley rat. A photodetector was used to detect fluorescence from within the ear. A background reading of fluorescence was obtained prior to administration of optical agent. A pyrazine agent (2 ml of a 0.4 mg/ml solution of 3,6-diaminopyrazine-2,5-dicarbonyl acid in PBS) was then administered to the rat by a bolus injection into the lateral tail vein.
The blood clearance time profile likely followed a two compartment pharmacokinetic model. The fluorescent signal arising from the agent concentration in the blood as a function of time was therefore fit to a double exponential decay. The equation employed to fit the data was: S=Ae^−t/τ1Be^−t/τ2+C (1) where S is the fluorescent light intensity signal measured, and t is the time point of the measurement. The decay times τ1 and τ2, and the constants A, B, and C were deduced from the fitting procedure. The non-linear regression analysis package in SigmaPiot® (Systat Software Inc., Richmond Calif.) was used to fit data to Eq. (1). In this and the following example, τ1 represents the time constant for vascular-extracellular fluid equilibrium, and T2 represents optical agent clearance from the blood.

The nature of series [2]: Renal clearance in a bilaterally nephrectomized rat (fluorescence from within the ear). It is filed as in vivo, Sprague-Dawley rat. Particulars: bilaterally nephrectomized rat compared with intact rat. As for the experimental part: as §1, with “An anesthetized Sprague-Dawley rat was bilaterally nephrectomized. Incident” for “Incident”, “of the” for “of an anesthetized intact Sprague-Dawley”, “of the pyrazine” for “of optical”, “agent. The” for “agent. A”, “vein. […] Specifically, the renal arteries were tied off to block blood flow to the kidneys.” for “vein.”
A comparison of clearance data from the intact rat (FIG. 1) and the bilaterally nephrectomized rat (FIG. 2) is shown in FIG. 3.

Series [3] in a line: Detection of optical agent in a rat ureter by fluorescence. Type of series: in vivo, Sprague-Dawley rat. As for the experimental part: A Sprague-Dawley rat was anesthetized with a cocktail of ketamine (87 mg/kg) and xylazine (2.6 mg/kg) administered by intraperitoneal injection. After the animal had achieved the desired plane of anesthesia, a 25 gauge butterfly with 3″ tubing was placed in the lateral tail vein of the animal and flushed with saline, The rat was placed onto a heating pad and kept warm throughout the study.
An abdominal incision was made to access the ureters and expose the ureters to a laser having the appropriate wavelength to cause the optical agent employed to fluoresce. Data acquisition was initiated, and a background reading of fluorescence was obtained prior to administration of the optical agent.
The optical agent, 3,6-diaminopyrazine-2,5-dicarboxylic acid, was administered to the rat by a bolus injection into the lateral tail vein and traveled through the circulatory system and kidneys to reach the ureters. The dose of optical agent was about 2 mL of 0.4 mg/mL solution in PBS. The rat weighed approximately 250 g.
A 3 mW laser from Power Technology, Inc. (Little Rock, […].) was used to emit light into one end of a fiber optic bundle, the other end of the bundle being positioned adjacent the ureter. […] As shown in FIGS. 5-6, when the surgical field was exposed to incident light having a wavelength of about 470 nm, the optical agent within the ureters emitted fluorescent energy at a wavelength of about 530 nm. Images of the surgical field showing the fluorescing optical agent in the ureter are shown in FIGS. 5-6 (in the absence of a 500 nm long pass filter) and FIG. 7 (in the presence of a 500 nm long pass filter).

Series [4] can be described thus: Excitation and emission wavelengths of optical agents. It is filed as physicochemical. Particulars: see Example 3 and FIG. 4. An excerpt:
In one exemplary embodiment, the optical agent is excited by light having a wavelength in the blue range of the visible portion of the electromagnetic spectrum (from about 430 nm to about 500 nm) and emits at a wavelength in the green range of the visible portion of the electromagnetic spectrum (from about 520 nm to about 565 nm). For example, fluorescein dyes can be excited with light with a wavelength of about 488 nm and have an emission wavelength of about 520 nm. As another example, 3,6-diaminopyrazine-2,5-dicarboxylic acid can be excited with light having a wavelength of about 470 nm and fluoresces at a wavelength of about 532 nm (see Example 3 and FIG. 4 herein).
In another embodiment, the excitation and emission wavelengths of the optical agent may fall in the near-infrared range of the electromagnetic spectrum. For example, indocyanine dyes, such as indocyanine green, can be excited with light with a wavelength of about 780 nm and have an emission wavelength of about 830 nm.

For series [5] the following is noted: general statement in the description; cited from earlier work.

The values below come from US11351274B2, “Methods of using optical agents” (MediBeacon Inc., priority 2006, dated 2022).

Each structure is given as a SMILES string. Read-outs that look alike come from different tables or passages of the source.

With `Nc1nc(C(=O)O)c(N)nc1C(=O)O` [3,6-diaminopyrazine-2,5-dicarboxylic acid], the “period over which the agent was cleared from the bloodstream” value in series [1] is listed as “slightly over twenty”. In addition, the “route of excretion concluded from failure to clear” value in series [2] is given as “renally excretable”. In series [3] (incident light of about 470 nm, in vivo in rat ureter), the “fluorescence emission wavelength within the ureters” value is “about 530 nm”. Besides, the “time after intravenous administration at which fluorescence within the ureter was detected” value in series [3] (rat, about 2 mL of 0.4 mg/mL in PBS, tail vein bolus) is reported as “about 40 minutes”. In series [3] (rat, ureter versus surrounding tissue), the “localisation of fluorescence in the surgical field” value is “only observed from the ureter and not from any surrounding tissue”. Besides, the fluorescence emission wavelength entry in series [4] (excitation about 470 nm) is “about 532 nm”. In series [4], the excitation wavelength result is “about 470 nm”.

On to `CC1(C)C(/C=C/C=C/C=C/C=C2\N(CCCCS(=O)(=O)O)c3ccc4ccccc4c3C2(C)C)=[N+](CCCCS(=O)(=O)[O-])c2ccc3ccccc3c21` [indocyanine green], for which, in series [5], the emission wavelength result was “about 830 nm” and the excitation wavelength result is “about 780 nm”.
